27 compounds from patent publication US10590140B2, “Tetrahydropyrimidodiazepine and dihydropyridodiazepine compounds for treating pain and pain related conditions” (ESTEVE PHARMACEUTICALS, S.A., priority 2016, dated 2020) can be followed below.

This assay has as its target human α2δ-1 subunit of Cav2.2 calcium channel (Homo sapiens (Human), UniProt P54289). As to the kind of experiment: Binding assay to human α2δ-1 subunit of Cav2.2 calcium channel ([3H]-Gabapentin). As to conditions: binding to α2δ-1, [3H]-Gabapentin; read-out: Ki (nM) α2δ-1. As to the method:
Binding Assay to Human α2δ-1 Subunit of Cav2.2 Calcium Channel.
NSB (non specific binding) was measured by adding 10 μM pregabalin. After 60 min incubation at 27° C., binding reaction was terminated by filtering through Multiscreen GF/C (Millipore) presoaked in 0.5% polyethyleneimine in Vacuum Manifold Station, followed by 3 washes with ice-cold filtration buffer containing 50 mM Tris-HCl, pH 7.4.
Filter plates were dried at 60° C. for 1 hour and 30 μl of scintillation cocktail were added to each well before radioactivity reading.

Chain of human α2δ-1 subunit of Cav2.2 calcium channel (P54289 25-1103): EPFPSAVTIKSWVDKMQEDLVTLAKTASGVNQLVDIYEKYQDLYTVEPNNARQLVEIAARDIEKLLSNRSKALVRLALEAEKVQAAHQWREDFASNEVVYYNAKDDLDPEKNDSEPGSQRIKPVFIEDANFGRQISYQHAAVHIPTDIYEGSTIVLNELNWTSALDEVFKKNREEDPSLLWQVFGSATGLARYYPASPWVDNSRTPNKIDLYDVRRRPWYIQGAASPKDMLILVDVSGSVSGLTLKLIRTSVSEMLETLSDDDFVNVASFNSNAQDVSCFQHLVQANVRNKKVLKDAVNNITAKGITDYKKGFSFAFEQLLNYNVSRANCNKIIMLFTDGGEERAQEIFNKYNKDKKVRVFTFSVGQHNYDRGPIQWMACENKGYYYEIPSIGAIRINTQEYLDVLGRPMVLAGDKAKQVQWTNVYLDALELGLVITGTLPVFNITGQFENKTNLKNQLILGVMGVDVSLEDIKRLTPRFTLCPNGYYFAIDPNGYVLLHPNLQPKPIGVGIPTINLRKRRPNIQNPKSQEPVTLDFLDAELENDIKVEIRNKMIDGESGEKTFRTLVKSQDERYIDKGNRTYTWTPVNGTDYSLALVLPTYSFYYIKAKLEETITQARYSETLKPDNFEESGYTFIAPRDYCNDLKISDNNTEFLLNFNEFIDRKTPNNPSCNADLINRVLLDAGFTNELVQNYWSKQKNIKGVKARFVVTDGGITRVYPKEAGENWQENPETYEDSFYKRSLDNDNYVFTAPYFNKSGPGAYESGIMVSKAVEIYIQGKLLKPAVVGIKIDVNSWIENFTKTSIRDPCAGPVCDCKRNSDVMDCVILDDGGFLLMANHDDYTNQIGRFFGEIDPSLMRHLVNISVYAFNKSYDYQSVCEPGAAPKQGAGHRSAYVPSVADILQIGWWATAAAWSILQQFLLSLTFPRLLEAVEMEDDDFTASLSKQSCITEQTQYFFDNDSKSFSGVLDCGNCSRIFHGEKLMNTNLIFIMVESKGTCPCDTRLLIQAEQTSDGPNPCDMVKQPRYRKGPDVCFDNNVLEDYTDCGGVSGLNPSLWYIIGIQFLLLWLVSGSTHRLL

A word on the Ki: it is a measure of affinity in units of concentration, obtained from inhibition or displacement. Regarding `CCNc1ncc2c(n1)N(C)CCN(c1cccc(-n3cc(CN4CCN(c5ccccc5)CC4)nn3)c1)C2=O` [Example 280, 2-(ethylamino)-9-methyl-6-(3-(4-((4-phenylpiperazin-1-yl)methyl)-1H-1,2,3-triazol-1-yl)phenyl)-6,7,8,9-tetrahydro-5H-pyrimido[4,5-e] [1,4]diazepin-5-one], the Ki lay in the range of 100 to 500 nM.

`CCNc1cc2c(cn1)C(=O)N(c1cccc(-c3nnc(C)o3)c1)CCN2C` [Example 54, 8-(ethylamino)-1-methyl-4-(3-(5-methyl-1,3,4-oxadiazol-2-yl)phenyl)-1,2,3,4-tetrahydro-5H-pyrido[4,3-e][1,4]diazepin-5-one]: the inhibition constant Ki lay in the range of 100 to 500 nM. The same measure for `CCNc1ncc2c(n1)N(C)CCN(c1cccc(O[Si](C)(C)C(C)(C)C)c1)C2=O` [Example 111, 6-(3-((tert-butyldimethylsilyl)oxy)phenyl)-2-(ethylamino)-9-methyl-6,7,8,9-tetrahydro-5H-pyrimido[4,5-e][1,4]diazepin-5-one]: over 3000 nM. As for `CCNc1ncc2c(n1)N(C)CCN(Cc1ccccc1OC(CNC)c1ccccc1)C2=O` (stereo not drawn) [Example 410, 2-(ethylamino)-9-methyl-6-(2-(2-(methylamino)-1-phenylethoxy)benzyl)-6,7,8,9-tetrahydro-5H-pyrimido[4,5-e][1,4]diazepin-5-one], the Ki is over 3000 nM. As for `CCNc1ncc2c(n1)N(C)CCN(c1cccc(-c3nnc(CNC)o3)c1)C2=O` [Example 187, 2-(ethylamino)-9-methyl-6-(3-(5-((methylamino)methyl)-1,3,4-oxadiazol-2-yl)phenyl)-6,7,8,9-tetrahydro-5H-pyrimido[4,5-e][1,4]diazepin-5-one], the Ki is over 3000 nM. In the case of `CSc1ncc2c(n1)N(C)CCN(c1ccc(O[Si](C)(C)C(C)(C)C)cc1)C2=O` [Example 38, 6-(4-((tert-butyldimethyl-silyl)oxy)phenyl)-9-methyl-2-(methylthio)-6,7,8,9-tetrahydro-5H-pyrimido[4,5-e][1,4]diazepin-5-one], the Ki was over 3000 nM.

Turning to `CCNc1ncc2c(n1)N(C)CCN(c1cccc(C(C)(C)CN(C)C(=O)OC(C)(C)C)c1)C2=O` [Example 93, tert-butyl (2-(3-(2-(ethylamino)-9-methyl-5-oxo-5,7,8,9-tetrahydro-6H-pyrimido[4,5-e][1,4]diazepin-6-yl)phenyl)-2-methylpropyl)(methyl) carbamate], the Ki was over 3000 nM.

For `CCNc1ncc2c(n1)N(C)CCN(c1cccc(CCCNC)c1)C2=O` [Example 171, 2-(ethylamino)-9-methyl-6-(3-(3-(methylamino)propyl)phenyl)-6,7,8,9-tetrahydro-5H-pyrimido[4,5-e][1,4]diazepin-5-one], the Ki was 100 to 500 nM. With `Cc1cc2c(cn1)C(=O)N(c1cccc(OC(CCN(C)C(=O)OCC[Si](C)(C)C)c3cccs3)c1)CCN2C` (stereo not drawn) [Example 302, 2-(trimethylsilyl)ethyl (3-(3-(1,8-dimethyl-5-oxo-1,2,3,5-tetrahydro-4H-pyrido[4,3-e][1,4]diazepin-4-yl)phenoxy)-3-(thiophen-2-yl)propyl) (methyl)carbamate] the figure was over 3000 nM. With `CNc1ncc2c(n1)N(C)CCN(c1cccc(CO[C@H](CCN(C)C(=O)OC(C)(C)C)c3ccccc3)c1)C2=O` [Example 132, tert-butyl (R)-methyl(3-((3-(9-methyl-2-(methylamino)-5-oxo-5,7,8,9-tetrahydro-6H-pyrimido[4,5-e][1,4]diazepin-6-yl)benzyl)oxy)-3-phenylpropyl)carbamate] the figure was over 3000 nM; with `CCNc1ncc2c(n1)N(C)CCN(c1cccc(-c3nnc(C)o3)c1)C2` [Example 66, N-ethyl-9-methyl-6-(3-(5-methyl-1,3,4-oxadiazol-2-yl)phenyl)-6,7,8,9-tetrahydro-5H-pyrimido[4,5-e][1,4]diazepin-2-amine], 500 to 3000 nM. In the case of `CCNc1ncc2c(n1)N(C)CCN(c1cccc(COC(C)CCN(C)C(=O)OC(C)(C)C)c1)C2=O` (stereo not drawn) [Example 127, tert-butyl (3-((3-(2-(ethylamino)-9-methyl-5-oxo-5,7,8,9-tetrahydro-6H-pyrimido[4,5-e][1,4]diazepin-6-yl)benzyl)oxy)butyl) (methyl)carbamate], the Ki was over 3000 nM.

On to `CCNc1ncc2c(n1)N(C)CCN(c1cccc(-n3cc(CNC)nn3)c1)C2=O` [Example 180, 2-(ethylamino)-9-methyl-6-(3-(4-((methylamino)methyl)-1H-1,2,3-triazol-1-yl)phenyl)-6,7,8,9-tetrahydro-5H-pyrimido[4,5-e][1,4]diazepin-5-one], for which the Ki fell in the range of 100 to 500 nM.

Regarding `Cc1ncc2c(n1)N(C)CCN(c1cccc(CO[C@H](CCN(C)C(=O)OC(C)(C)C)c3ccccc3)c1)C2=O` [Example 142, tert-Butyl (R)-(3-((3-(2,9-dimethyl-5-oxo-5,7,8,9-tetrahydro-6H-pyrimido[4,5-e][1,4]diazepin-6-yl)benzyl)oxy)-3-phenylpropyl)(methyl)carbamate], the inhibition constant Ki is over 3000 nM. On to `CCN1CCN(Cc2ccc(O[C@@H](CCNC)c3cccs3)cc2)C(=O)c2cncnc21` [Example 398, (S)-9-ethyl-6-(4-(3-(methylamino)-1-(thiophen-2-yl)propoxy)benzyl)-6,7,8,9-tetrahydro-5H-pyrimido[4,5-e][1,4]diazepin-5-one], for which the Ki lay in the range of 100 to 500 nM. With `CCNc1ncc2c(n1)N(C)CCN(Cc1ccccc1COC(CCNC)c1ccccc1)C2=O` (stereo not drawn) [Example 404, 2-(ethylamino)-9-methyl-6-(2-((3-(methylamino)-1-phenylpropoxy)methyl)benzyl)-6,7,8,9-tetrahydro-5H-pyrimido[4,5-e][1,4]diazepin-5-one] the figure was over 3000 nM; with `CCNc1cc2c(cn1)C(=O)N(c1cccc(COC(CCN(C)C(=O)OCC[Si](C)(C)C)c3cccs3)c1)CCN2C` (stereo not drawn) [Example 60, 2-(trimethyl-silyl)ethyl (3-((3-(8-(ethylamino)-1-methyl-5-oxo-1,2,3,5-tetrahydro-4H-pyrido[4,3-e] [1,4]diazepin-4-yl)benzyl)oxy)-3-(thiophen-2-yl)propyl) (methyl) carbamate], over 3000 nM; with `CCNc1ncc2c(n1)N(C)CCN(c1ccc(OC(CN(C)C(=O)OC(C)(C)C)c3ccccc3)cc1)C2=O` (stereo not drawn) [Example 76, tert-butyl (2-(4-(2-(ethylamino)-9-methyl-5-oxo-5,7,8,9-tetrahydro-6H-pyrimido[4,5-e][1,4]diazepin-6-yl)phenoxy)-2-phenylethyl)(methyl) carbamate], over 3000 nM. As to `CCNc1ncc2c(n1)N(C)CCN(c1cccc(OC(CN(C)C(=O)OC(C)(C)C)C(C)C)c1)C2=O` (stereo not drawn) [Example 75, tert-butyl (2-(3-(2-(ethylamino)-9-methyl-5-oxo-5,7,8,9-tetrahydro-6H-pyrimido[4,5-e][1,4]diazepin-6-yl)phenoxy)-3-methylbutyl) (methyl)carbamate], the Ki was over 3000 nM. With `CN(CCC(OCc1cccc(N2CCN(C)c3ncncc3C2=O)c1)c1cccs1)C(=O)OC(C)(C)C` (stereo not drawn) [Example 146, tert-butyl methyl(3-((3-(9-methyl-5-oxo-5,7,8,9-tetrahydro-6H-pyrimido[4,5-e][1,4]diazepin-6-yl)benzyl)oxy)-3-(thiophen-2-yl)propyl)carbamate] the figure was over 3000 nM; with `Cc1nnc(-c2cccc(N3CCN(C)c4nc(NC5CCCCC5)ncc4C3=O)c2)o1` [Example 103, 2-(cyclohexylamino)-9-methyl-6-(3-(5-methyl-1,3,4-oxadiazol-2-yl)phenyl)-6,7,8,9-tetrahydro-5H-pyrimido[4,5-e][1,4]diazepin-5-one], over 3000 nM. For the compound `CSc1ncc2c(n1)N(C)CCN(c1cccc(OC(CCN(C)C(=O)OC(C)(C)C)c3ccccc3)c1)C2=O` (stereo not drawn) [Example 1, tert-Butyl methyl(3-(3-(9-methyl-2-(methylthio)-5-oxo-5,7,8,9-tetrahydro-6H-pyrimido[4,5-e][1,4]diazepin-6-yl)phenoxy)-3-phenylpropyl) carbamate], the Ki is over 3000 nM. The same measure for `CSc1ncc2c(n1)N(C)CCN(c1cccc(OC(CCN(C)C(=O)OC(C)(C)C)c3cccnc3)c1)C2=O` (stereo not drawn) [Example 53, tert-butyl methyl(3-(3-(9-methyl-2-(methylthio)-5-oxo-5,7,8,9-tetrahydro-6H-pyrimido[4,5-e][1,4]diazepin-6-yl)phenoxy)-3-(pyridin-3-yl)propyl) carbamate]: over 3000 nM; for `CSc1ncc2c(n1)N(C)CCN(c1cccc(OCCN(C)C(=O)OC(C)(C)C)c1)C2=O` [Example 22, tert-butyl methyl(2-(3-(9-methyl-2-(methylthio)-5-oxo-5,7,8,9-tetrahydro-6H-pyrimido[4,5-e][1,4]diazepin-6-yl)phenoxy)ethyl) carbamate]: over 3000 nM. Take `CCNc1ncc2c(n1)N(C)CCN(c1cccc(-n3cc(CN(Cc4ccccc4)C(=O)OC(C)(C)C)nn3)c1)C2=O` [Example 118, tert-butyl benzyl((1-(3-(2-(ethylamino)-9-methyl-5-oxo-5,7,8,9-tetrahydro-6H-pyrimido[4,5-e][1,4]diazepin-6-yl)phenyl)-1H-1,2,3-triazol-4-yl)methyl)carbamate]: the Ki is over 3000 nM. The same measure for `CSc1ncc2c(n1)N(C)CCN(c1cccc(O[C@H](CCN(C)C(=O)OC(C)(C)C)c3cccs3)c1)C2=O` [Example 13, tert-butyl (R)-methyl(3-(3-(9-methyl-2-(methylthio)-5-oxo-5,7,8,9-tetrahydro-6H-pyrimido[4,5-e] [1,4]diazepin-6-yl)phenoxy)-3-(thiophen-2-yl)propyl) carbamate]: over 3000 nM. Regarding `CCNc1ncc2c(n1)N(C)CCN(c1cccc(CCN3CCC(c4ccccc4)(N(C)C)CC3)c1)C2=O` [Example 438, 6-(3-(2-(4-(dimethylamino)-4-phenylpiperidin-1-yl)ethyl)phenyl)-2-(ethylamino)-9-methyl-6,7,8,9-tetrahydro-5H-pyrimido[4,5-e][1,4]diazepin-5-one], the inhibitory constant (Ki) lay in the range of 500 to 3000 nM.
